From US9505780B2, “Thienopyranones as kinase and epigenetic inhibitors” (SignalRx Pharmaceuticals, Inc., priority 2014, dated 2016)

Tests used:
[1] = test system: NB9464; experiment: NB9464 neuroblastoma tumor growth in nude mice; settings: 50 mg/kg, 3 days a week for 1.5 weeks, intra-peritoneal
From the text: MYCN-overexpressing murine neuroblastoma cells (NB9464) were transplanted into nude mice, grown lot 24 days and randomized into two groups.

[2] = test system: Panc02; experiment: Orthotopic pancreatic model of spontaneous metastasis; type: in vivo, WT mice; settings: 50 mg/kg, three times a week
Description: Panc02 (1×10^6) tumor cells were injected into the pancreas of WT mice (n=18). After 20 days, mice were randomized into two groups. One group was treated with DMSO (control) and the other group was treated with 50 mg/kg of SF2523, three tunes a week. Tumors were removed 35 days after tumor implantation. Values are mean±SEM (n=8 in each gp; P<0.01; pair wise two-sided Student's t test). […] Values are mean±SEM (n=7; P<0.01; pair wise two-sided. Student's t test). The data are representative of three independent experiments performed.

[3] = test system: SKNBE (2) cells; experiment: Western blot of p-AKT and N-MYC in SKNBE(2) cells; type: cell-based, human; settings: 24 hrs treatment, IGF stimulated
Description: Cells were stimulated with 50 ng/ml IGF for 30 min and used for lysate preparation. Proteins were quantitated by the BCA protein assay (Pierce). Equal amounts of protein were resolved by polyacrylamide gels, transferred to nitrocellulose membrane and probed by Western blot with the following primary antibodies: p-AKT(Ser473), API (Cell Signaling Technologies), N-MYC, CyclinD1 and β-actin (Santa Cruz Biotechnology).

[4] = target: PI3Kδ (Homo sapiens (Human), UniProt O00329); experiment: PI3K delta isoform inhibition; type: biochemical
PI3Kδ, sequence (O00329 whole entry, canonical isoform): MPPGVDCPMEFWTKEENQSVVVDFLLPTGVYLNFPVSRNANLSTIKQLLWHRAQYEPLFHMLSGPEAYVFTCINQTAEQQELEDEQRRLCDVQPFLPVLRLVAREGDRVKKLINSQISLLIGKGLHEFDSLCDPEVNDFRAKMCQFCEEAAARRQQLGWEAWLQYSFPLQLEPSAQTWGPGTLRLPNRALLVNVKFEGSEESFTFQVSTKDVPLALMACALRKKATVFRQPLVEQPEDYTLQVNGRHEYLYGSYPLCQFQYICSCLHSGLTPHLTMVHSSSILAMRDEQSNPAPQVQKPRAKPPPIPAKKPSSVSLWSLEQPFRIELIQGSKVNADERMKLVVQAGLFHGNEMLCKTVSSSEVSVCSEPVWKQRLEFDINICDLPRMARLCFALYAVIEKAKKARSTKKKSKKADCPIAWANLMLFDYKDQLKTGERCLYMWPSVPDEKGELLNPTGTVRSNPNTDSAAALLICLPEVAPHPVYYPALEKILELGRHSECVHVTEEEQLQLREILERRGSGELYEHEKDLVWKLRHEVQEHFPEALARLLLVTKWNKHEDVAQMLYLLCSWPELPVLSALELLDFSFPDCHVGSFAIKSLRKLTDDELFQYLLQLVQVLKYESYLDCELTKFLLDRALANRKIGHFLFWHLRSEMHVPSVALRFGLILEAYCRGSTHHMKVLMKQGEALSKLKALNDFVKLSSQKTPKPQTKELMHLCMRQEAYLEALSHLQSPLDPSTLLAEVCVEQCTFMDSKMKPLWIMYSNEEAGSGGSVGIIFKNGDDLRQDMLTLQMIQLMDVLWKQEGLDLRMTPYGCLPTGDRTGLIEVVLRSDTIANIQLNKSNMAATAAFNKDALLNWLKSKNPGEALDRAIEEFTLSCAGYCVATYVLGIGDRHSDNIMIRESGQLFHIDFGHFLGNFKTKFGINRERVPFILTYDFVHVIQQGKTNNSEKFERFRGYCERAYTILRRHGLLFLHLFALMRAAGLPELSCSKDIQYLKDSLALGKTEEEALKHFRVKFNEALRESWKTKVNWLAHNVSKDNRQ
PI3Kδ, sequence (P27986 whole entry partner, canonical isoform): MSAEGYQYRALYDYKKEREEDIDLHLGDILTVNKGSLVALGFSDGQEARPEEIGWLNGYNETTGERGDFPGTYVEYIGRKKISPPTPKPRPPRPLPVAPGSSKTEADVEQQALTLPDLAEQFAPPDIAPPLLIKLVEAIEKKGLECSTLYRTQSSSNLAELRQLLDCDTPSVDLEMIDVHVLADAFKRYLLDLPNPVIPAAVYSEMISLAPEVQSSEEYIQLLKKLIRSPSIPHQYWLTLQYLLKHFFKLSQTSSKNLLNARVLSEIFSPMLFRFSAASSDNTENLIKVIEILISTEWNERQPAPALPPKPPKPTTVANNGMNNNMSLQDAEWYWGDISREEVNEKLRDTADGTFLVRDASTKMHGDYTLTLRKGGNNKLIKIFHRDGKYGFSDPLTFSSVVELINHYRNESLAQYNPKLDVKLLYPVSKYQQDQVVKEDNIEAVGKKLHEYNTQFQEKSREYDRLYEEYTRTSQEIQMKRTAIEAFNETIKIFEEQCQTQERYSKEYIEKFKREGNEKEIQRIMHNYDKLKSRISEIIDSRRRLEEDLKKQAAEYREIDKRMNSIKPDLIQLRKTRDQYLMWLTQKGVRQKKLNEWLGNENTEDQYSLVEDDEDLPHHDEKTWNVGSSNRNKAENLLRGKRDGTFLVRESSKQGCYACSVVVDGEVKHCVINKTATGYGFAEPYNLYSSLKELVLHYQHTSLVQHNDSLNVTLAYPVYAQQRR
From the text: Inhibitory activity can be determined routinely using known methods and also front commercial vendors offering this service for kinases and bromodomain proteins. […] In vivo, PI3K inhibition can be determined from target tissue biopsies by standard tissue processing to disrupt cells and then performing Western Blot analysis to determine the presence or absence of pAKT (substrate of PI3K) relative to a control sample. The activity of a compound of the invention as an inhibitor of a bromodomain-containing protein, such as a BET protein, such as BRD2, BRD3, BRD4, and/or BRDT, or an isoform or mutant thereof may be determined in vitro, in vivo, or in a cell line. In vitro assays include assays that determine inhibition of bromodomain-containing proteins. Alternatively, inhibitor binding may be determined by running a competition experiment where a provided compound is incubated with a bromodomain-containing protein, such as a BET protein bound to known ligands, labeled or unlabeled. For example, bromodomain inhibition can be determined in vitro using Alpha Screen Technology (http://www.reactionbiology.com/webapps/site/NewsPDFs/Bromodomain%20Assay%20Platform%20for%20Drug%/20Screening%20and%20Discovery.pdf). In vivo bromodomain inhibition can be determined indirectly by evaluating the amount of protect present of proteins whose genes' transcription is influenced or controlled by the bromodomain protein, for example, the MYCN protein transcription is controlled by BRD4 (J. E. Delmore et al., Cell 2011, 146, 904-917; A. Puissant, Cancer Discov. 2013, 3, 308-323). Bromodomain inhibition may also be predicted by in silico modeling as described below in the Examples.
(§1) Several TP Scaffold compounds (structures shown in FIG. 2 and Table 3) were tested for inhibition activity against isoforms of PI3K (alpha, beta, gamma, and delta isoforms) and the bromodomain protein BRD4 at regions 1 (BRD4-1) and 2 (BRD4-2).

[5] = test system: PC3; experiment: Cellular PI3K inhibitory activity, pAKT Ser473 ELISA; type: cell-based; settings: Homo sapiens, PC-3; IGF-1 stimulated, pAKT serine 473
Description: Biological testing of compounds of Formula I. Representative compounds of the invention were tested for cellular PI3K inhibitory activity (as measured by the most robust marker of pathway activity pAKT) in a prostate cancer cell line (PC3), which is summarized in Table 3. […] After this time period the cells were serum starved for 5 hours followed by application of the test compound. Test compound was added as a DMSO (dimethyl sulfoxide) solution such that the final DMSO concentration in the cell media was less than or equal to 0.2% by volume. After 30 minutes of exposure the growth factor stimulant, human IGF-1 (Pepro Tech, Inc., Rocky Hill, N.J., Cat. #100-11), was added in each well. After 30 minutes of IGF-1 exposure, cells were removed the media and cell lysates were prepared using RIPA Lysis buffer (Upstate, Lake Placid, N.Y., Cat. #20-188), keeping on ice. The pAKT serine 473 level was measured in duplicate samples of the cell lysates using commercially available assays such as the Pathscan® Sandwich ELISA kit for Ser473 pAKT (Cell Signaling, Danvers, Mass. Cat. #7160). A SpectraMax Plus spectrophotometric plate reader (Molecular Devices, Sunnydale, Calif.) was used to measure the optical density signal for pAKT at 450 nm (OD450 nm). The pAKT OD450 nm readings were normalized by total protein amount in the cell lysates determined by standard methods.

[6] = test system: B16 melanoma cells; experiment: Mouse model of melanoma metastasis, B16 F10 luciferase cells by tail vein; type: in vivo, WT mice; settings: 50 mg/kg every other day, 15 days
From the text: The luciferase signal was monitored every third day by rejecting luciferin, until the lungs were harvested on day 15 (n=5). […] Lungs extracted from these animals are shown below the luciferase imaged pictures supporting the repression of tumor growth in Cmpd 28-treated mice.

[7] = test system: IMR32 cell line; experiment: Real-time PCR of N-myc and Cyclin D1 mRNA; type: cell-based; settings: 5 μM, 24 hrs
Description: Cells were stimulated with 50 ng/ml IGF and used for RNA Isolation after 24 hrs of treatment with various inhibitors. The results for N-Myc are shown in FIG. 7A and for Cyclin D1 in FIG. 7B.
The experiment of Example 7 was repeated in the IMR32 cell line (MYCN amplified neuroblastoma cancer cell line).

[8] = target: BRD4 (Homo sapiens, UniProt O60885); experiment: BRD4 inhibition assay (region not distinguished); type: biochemical; settings: BRD4 regions 1 and 2
[9] = target: BRD4-1 (Homo sapiens (Human), UniProt O60885); experiment: BRD4 region 1 (BRD4-1) inhibition; type: biochemical
[10] = target: PI3Kβ (Homo sapiens (Human), UniProt P42338); experiment: PI3K beta isoform inhibition; type: biochemical
PI3Kβ, sequence (P42338 whole entry, canonical isoform): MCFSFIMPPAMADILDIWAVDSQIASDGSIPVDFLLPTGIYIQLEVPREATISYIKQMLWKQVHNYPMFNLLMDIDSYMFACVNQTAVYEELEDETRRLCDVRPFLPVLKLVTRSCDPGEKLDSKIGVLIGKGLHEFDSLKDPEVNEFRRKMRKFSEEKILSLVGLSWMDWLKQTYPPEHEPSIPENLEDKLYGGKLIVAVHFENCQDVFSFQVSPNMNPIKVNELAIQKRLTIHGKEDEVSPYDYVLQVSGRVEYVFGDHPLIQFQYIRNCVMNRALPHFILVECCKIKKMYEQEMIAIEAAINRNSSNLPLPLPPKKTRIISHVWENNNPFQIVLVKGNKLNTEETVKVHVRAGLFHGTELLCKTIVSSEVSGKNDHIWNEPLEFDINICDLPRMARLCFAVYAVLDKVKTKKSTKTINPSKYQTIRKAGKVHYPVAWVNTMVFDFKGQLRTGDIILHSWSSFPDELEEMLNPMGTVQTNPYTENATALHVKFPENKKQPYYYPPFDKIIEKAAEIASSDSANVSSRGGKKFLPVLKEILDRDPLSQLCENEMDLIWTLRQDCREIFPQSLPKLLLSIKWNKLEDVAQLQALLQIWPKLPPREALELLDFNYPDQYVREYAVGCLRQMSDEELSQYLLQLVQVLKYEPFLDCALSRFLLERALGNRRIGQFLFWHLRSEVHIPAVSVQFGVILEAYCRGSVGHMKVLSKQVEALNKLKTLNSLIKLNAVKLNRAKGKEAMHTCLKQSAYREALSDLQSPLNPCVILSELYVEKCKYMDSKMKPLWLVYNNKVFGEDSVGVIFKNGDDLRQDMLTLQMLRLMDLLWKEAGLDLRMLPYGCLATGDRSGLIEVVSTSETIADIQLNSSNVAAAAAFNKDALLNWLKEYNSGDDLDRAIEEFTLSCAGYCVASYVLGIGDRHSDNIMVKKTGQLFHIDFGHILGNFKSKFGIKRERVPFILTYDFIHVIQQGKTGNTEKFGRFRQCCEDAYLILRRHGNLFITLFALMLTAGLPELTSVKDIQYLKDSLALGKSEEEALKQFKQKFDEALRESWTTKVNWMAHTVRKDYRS
PI3Kβ, sequence (P27986 whole entry partner, canonical isoform): as the sequence (P27986 whole entry partner, canonical isoform) above

[11] = target: BRD4-2 (Homo sapiens (Human), UniProt O60885); experiment: BRD4 region 2 (BRD4-2) inhibition; type: biochemical
[12] = target: PI3Kγ (Homo sapiens (Human), UniProt P48736); experiment: PI3K gamma isoform inhibition; type: biochemical
PI3Kγ, sequence (P48736 whole entry, canonical isoform): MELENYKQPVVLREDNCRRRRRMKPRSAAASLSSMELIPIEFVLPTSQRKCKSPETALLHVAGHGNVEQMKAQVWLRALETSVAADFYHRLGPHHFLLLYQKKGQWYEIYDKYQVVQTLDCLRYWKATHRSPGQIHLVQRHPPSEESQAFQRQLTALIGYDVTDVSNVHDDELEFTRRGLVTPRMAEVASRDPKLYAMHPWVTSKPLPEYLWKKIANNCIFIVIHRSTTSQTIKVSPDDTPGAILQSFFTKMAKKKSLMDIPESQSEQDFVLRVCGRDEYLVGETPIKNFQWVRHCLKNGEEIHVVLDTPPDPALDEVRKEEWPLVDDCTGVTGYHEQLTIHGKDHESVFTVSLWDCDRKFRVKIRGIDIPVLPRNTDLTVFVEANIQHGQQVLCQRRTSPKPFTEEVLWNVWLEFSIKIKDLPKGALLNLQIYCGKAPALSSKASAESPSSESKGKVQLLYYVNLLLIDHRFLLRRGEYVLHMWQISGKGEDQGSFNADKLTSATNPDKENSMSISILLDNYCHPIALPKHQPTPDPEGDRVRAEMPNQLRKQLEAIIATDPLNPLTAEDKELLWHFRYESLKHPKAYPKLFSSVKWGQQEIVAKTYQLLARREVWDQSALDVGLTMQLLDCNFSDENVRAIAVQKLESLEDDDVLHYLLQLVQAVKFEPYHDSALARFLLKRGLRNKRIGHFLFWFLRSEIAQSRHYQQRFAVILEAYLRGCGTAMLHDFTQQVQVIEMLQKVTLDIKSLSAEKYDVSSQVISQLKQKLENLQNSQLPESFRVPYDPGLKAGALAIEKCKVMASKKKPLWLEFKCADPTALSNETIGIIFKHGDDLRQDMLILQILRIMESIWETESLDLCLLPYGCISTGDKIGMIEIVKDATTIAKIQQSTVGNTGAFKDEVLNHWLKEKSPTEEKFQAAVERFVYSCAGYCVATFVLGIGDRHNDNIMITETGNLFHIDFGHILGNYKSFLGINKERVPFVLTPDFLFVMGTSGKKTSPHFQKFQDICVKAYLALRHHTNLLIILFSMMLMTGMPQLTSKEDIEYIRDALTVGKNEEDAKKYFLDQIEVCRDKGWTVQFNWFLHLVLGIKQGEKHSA

[13] = test system: MYCN amplified SKNBE(2) cells; experiment: Brd4 chromatin precipitation, quantitative PCR of MYCN promoter region; type: cell-based, human; settings: 24 hours exposure
Description: MYCN amplified SKNBE(2) cells were exposed to inhibitors for 24 hours then chromatin was precipitated with Brd4 (rabbit polyclonal antibody) along with rabbit IgG as a negative control (IgG). Precipitated chromatin was analyzed for the MYCN gene (2 sites within the MYCN promoter region) by quantitative PCR and enrichment is shown as the percentage of total input DNA (FIG. 4). The negative control region primers amplify within a gene desert region approximately 1 Mb away from MYCN (MYC-N NR). Error bars represent ±SEM of triplicate data. P<0.05 as compared to positive control (paired t-test). Positive control: No inhibitor; IP with BRD4 antibody, Negative Control: No inhibitor, IP with rabbit IgG.

[14] = test system: PI3K; experiment: PI3K inhibition (isoform not distinguished); type: biochemical
Description: as §1
All thienopyranone-based compounds tested inhibited either PI3K or BRD4 or both PI3K and BRD4. […] JQ1+, a known bromodomain inhibitor, was used as reference compound.

[15] = target: PI3Kα (Homo sapiens (Human), UniProt P42336); experiment: PI3K alpha isoform inhibition; type: biochemical
PI3Kα, sequence (P42336 whole entry, canonical isoform): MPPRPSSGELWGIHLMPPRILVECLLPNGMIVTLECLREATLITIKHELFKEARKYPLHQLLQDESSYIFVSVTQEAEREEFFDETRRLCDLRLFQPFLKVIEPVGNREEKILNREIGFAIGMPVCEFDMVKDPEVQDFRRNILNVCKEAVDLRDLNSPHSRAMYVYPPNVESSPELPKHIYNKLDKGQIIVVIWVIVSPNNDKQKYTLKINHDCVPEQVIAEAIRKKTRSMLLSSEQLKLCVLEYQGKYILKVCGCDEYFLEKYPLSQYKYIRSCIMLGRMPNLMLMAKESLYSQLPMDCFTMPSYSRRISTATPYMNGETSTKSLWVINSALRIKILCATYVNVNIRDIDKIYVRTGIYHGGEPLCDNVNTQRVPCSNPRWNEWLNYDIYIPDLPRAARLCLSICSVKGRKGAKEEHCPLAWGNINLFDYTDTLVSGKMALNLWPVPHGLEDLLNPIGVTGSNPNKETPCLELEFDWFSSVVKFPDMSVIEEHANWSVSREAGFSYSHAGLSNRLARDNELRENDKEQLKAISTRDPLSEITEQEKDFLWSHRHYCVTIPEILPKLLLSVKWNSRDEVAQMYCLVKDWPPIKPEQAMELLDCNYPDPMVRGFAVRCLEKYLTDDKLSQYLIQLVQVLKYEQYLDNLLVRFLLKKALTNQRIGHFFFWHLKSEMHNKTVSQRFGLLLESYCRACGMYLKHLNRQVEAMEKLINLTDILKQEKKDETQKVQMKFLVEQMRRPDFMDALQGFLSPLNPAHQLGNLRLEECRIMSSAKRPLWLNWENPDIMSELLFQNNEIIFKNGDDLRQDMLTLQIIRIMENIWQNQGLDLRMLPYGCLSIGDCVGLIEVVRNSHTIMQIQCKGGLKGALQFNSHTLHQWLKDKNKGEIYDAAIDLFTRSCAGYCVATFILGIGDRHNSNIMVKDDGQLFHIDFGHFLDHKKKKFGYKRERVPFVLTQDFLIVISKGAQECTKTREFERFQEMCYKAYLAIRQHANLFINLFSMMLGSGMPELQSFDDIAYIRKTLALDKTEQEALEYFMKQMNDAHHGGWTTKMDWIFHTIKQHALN
PI3Kα, sequence (P27986 whole entry partner, canonical isoform): as the sequence (P27986 whole entry partner, canonical isoform) above

[16] = test system: NB9464; experiment: Cytotoxicity / proliferation study, alone and in combination; type: cell-based, murine
[17] = test system: SKNBE(2); experiment: as above; type: cell-based, human
[18] = test system: MYCN-dependent MB patient derived xenograft (PDX) cell line; experiment: as above; type: cell-based

What does the source list for `O=c1cc(N2CCOCC2)oc2c(-c3ccc4c(c3)OCCO4)csc12` [Cmpd 28]?
tolerability / body weight [1]: well tolerated (no body weight loss; tumor growth compared to vehicle [1]: significantly blocked tumor growth; spontaneous metastasis [2]: blocks spontaneous metastasis; MYCN protein quantity, Western blot [3]: decreased; pAKT, Western blot [3]: decreased; IC50 [4]: 960 nM; IC50 [5]: 161 to 440 nM; luciferase bioimaging of cancer cells [6]: little evidence of the presence of cancer cells; reduction in metastatic nodules [6]: 60%; Cyclin D1 mRNA expression [7]: reducing mRNA expression; MYCN mRNA expression [7]: inhibits MYCN expression; BRD4 inhibition [8]: showed activity; IC50 [9]: 241 nM; IC50 [10]: 214 nM; IC50 [11]: 1550 nM; IC50 [12]: 158 nM; MYCN expression (Brd4 ChIP, MYCN promoter) [13]: significantly repressed MYCN expression

For `Cc1sc2c(c1C)C(c1ccc(Cl)cc1)=N[C@@H](CC(=O)OC(C)(C)C)c1nnc(C)n1-2` [JQ-1], which “PI3K inhibition” value [14] is on record?
Its value is “does not inhibit PI3K”.

What about the “MYCN protein quantity, Western blot” value [3] of the same compound?
Its value is “inhibited only MYCN quantities”.

And the IC50 [15]?
The IC50 was over 50000 nM.

And the IC50 [16]?
The IC50 was 1600 nM.

And the IC50 [4]?
Its IC50 is over 50000 nM.

What about the IC50 [17] of the same compound?
The IC50 was 1900 nM.

And the IC50 [12]?
Its IC50 is over 50000 nM.

And the “MYCN expression (Brd4 ChIP, MYCN promoter)” value [13]?
Its value is “significantly repressed MYCN expression”.

And the IC50 [18]?
Its IC50 is 2200 nM.
